PubChem BioAssay (NCI)
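Five compound concentrations were applied to cells in 96-well plates for 48 hours; endpoints were derived by simple linear interpolation of the resulting dose-response curve. TGI marks complete inhibition of growth.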

Tests used:
Test in all cases: growth of human tumour cells (NCI), 48 h
[1] = test system: RXF 393 renal
[2] = test system: KM20L2 colon
[3] = test system: LXFL 529 NSCLC
[4] = test system: SF-539 CNS
[5] = test system: HCC-2998 colon
[6] = test system: RXF-631 renal
[7] = test system: A498 renal
[8] = test system: SF-295 CNS
[9] = test system: HCT-15 colon
[10] = test system: OVCAR-3 ovarian
[11] = test system: HL-60(TB) leukemia
[12] = test system: DLD-1 colon
[13] = test system: DMS 273 small cell lung
[14] = test system: SK-MEL-5 melanoma
[15] = test system: NCI-H460 lung
[16] = test system: SNB-78 CNS
[17] = test system: NCI-H23 lung
[18] = test system: K-562 leukemia
[19] = test system: SR leukemia
[20] = test system: HCT-116 colon
[21] = test system: UACC-257 melanoma
[22] = test system: HOP-92 NSCLC
[23] = test system: OVCAR-8 ovarian
[24] = test system: HOP-62 NSCLC
[25] = test system: TK-10 renal
[26] = test system: RPMI-8226 leukemia
[27] = test system: NCI-H522 lung
[28] = test system: U251 CNS
[29] = test system: SNB-19 CNS
[30] = test system: XF 498 CNS
[31] = test system: M14 melanoma
[32] = test system: CCRF-CEM leukemia
[33] = test system: SF-268 CNS
[34] = test system: IGROV1 ovarian
[35] = test system: ACHN renal
[36] = test system: SK-OV-3 ovarian
[37] = test system: SNB-75 CNS
[38] = test system: MDA-MB-435
[39] = test system: NCI-H226 lung
[40] = test system: A549 NSCLC
[41] = test system: 786-0 renal
[42] = test system: SK-MEL-2 melanoma
[43] = test system: M19-MEL melanoma
[44] = test system: OVCAR-4 ovarian
[45] = test system: LOX IMVI melanoma
[46] = test system: UO-31 renal
[47] = test system: MDA-MB-231 breast
[48] = test system: COLO 205 colon
[49] = test system: DMS 114 small cell lung
[50] = test system: SK-MEL-28 melanoma
[51] = test system: CAKI-1 renal
[52] = test system: DU-145 prostate
[53] = test system: SN12C renal
[54] = test system: EKVX NSCLC
[55] = test system: T-47D breast
[56] = test system: BT-549 breast
[57] = test system: KM12 colon
[58] = test system: MDA-N
[59] = test system: HS 578T breast
[60] = test system: HOP-18 NSCLC
[61] = test system: PC-3 prostate
[62] = test system: MOLT-4 leukemia
[63] = test system: SW-620 colon
[64] = test system: UACC-62 melanoma
[65] = test system: HT29 colon
[66] = test system: OVCAR-5 ovarian
[67] = test system: MALME-3M melanoma

For `COc1ccc2cc1Oc1ccc(cc1)C[C@@H]1c3cc(c(OC)cc3CCN1C)Oc1c(OC)c(OC)cc3c1[C@@H](C2)N(C)CC3`, the TGI [1] was 8.77 µM, the TGI [2] was 21.3 µM and the TGI [3] was 32.7 µM. For the same molecule, the TGI [4] was 23 µM, the TGI [5] was 30.7 µM and the TGI [6] was 30 µM. The TGI [7] was 32.5 µM, the TGI [8] was 31.3 µM and the TGI [9] was 30 µM. For the same molecule, the TGI [10] was 33.8 µM, the TGI [11] was 39.9 µM and the TGI [12] was 71.6 µM. The TGI [13] was 35.3 µM, the TGI [14] was 33.8 µM and the TGI [15] was 27.3 µM. It also gave a TGI [16] of 31.6 µM, a TGI [17] of 33.7 µM and a TGI [18] of 9.77 µM. For the same molecule, the TGI [19] was 43.3 µM, the TGI [20] was 13 µM and the TGI [21] was 28.1 µM. For the same molecule, the TGI [22] was 26.9 µM, the TGI [23] was 28.2 µM and the TGI [24] was 35.8 µM. The TGI [25] was 33.5 µM, the TGI [26] was 39.9 µM and the TGI [27] was 30 µM. It also gave a TGI [28] of 26 µM, a TGI [29] of 30.8 µM and a TGI [30] of 19.3 µM. For the same molecule, the TGI [31] was 4.01 µM, the TGI [32] was 35 µM and the TGI [33] was 52.4 µM. For the same molecule, the TGI [34] was 40.8 µM, the TGI [35] was 34.8 µM and the TGI [36] was 41.2 µM. For the same molecule, the TGI [37] was 23.7 µM.

In the case of `O=C1/C(=C/c2ccc3c(c2)OCO3)CCC1CN1CCOCC1` (stereo not drawn), the TGI [38] is reported as 40.6 µM, the TGI [1] is reported as 24.7 µM and the TGI [39] is reported as 33.8 µM. The TGI [40] was 43.3 µM, the TGI [2] was 36.9 µM and the TGI [41] was 11.3 µM. It also gave a TGI [3] of 7.68 µM, a TGI [4] of 28.1 µM and a TGI [5] of 17.4 µM. It also gave a TGI [6] of 44.7 µM, a TGI [7] of 23.9 µM and a TGI [8] of 33.7 µM. For the same molecule, the TGI [42] was 28.6 µM, the TGI [9] was 8.46 µM and the TGI [10] was 20.5 µM. For the same molecule, the TGI [11] was 3.99 µM, the TGI [12] was 6.31 µM and the TGI [43] was 10 µM. The TGI [13] was 25.3 µM, the TGI [44] was 18.8 µM and the TGI [45] was 7.84 µM. The TGI [14] was 20.4 µM, the TGI [15] was 33.4 µM and the TGI [16] was 41.8 µM. It also gave a TGI [46] of 29.2 µM, a TGI [47] of 7.73 µM and a TGI [48] of 35.8 µM. For the same molecule, the TGI [17] was 25.1 µM, the TGI [18] was 8.42 µM and the TGI [49] was 15.6 µM. The TGI [50] was 10.4 µM, the TGI [19] was 5.42 µM and the TGI [51] was 9.21 µM. The TGI [20] was 14.5 µM, the TGI [21] was 22.6 µM and the TGI [52] was 29.6 µM. For the same molecule, the TGI [53] was 12 µM, the TGI [22] was 29.3 µM and the TGI [23] was 21.4 µM. For the same molecule, the TGI [54] was 34.7 µM, the TGI [24] was 25.6 µM and the TGI [55] was 42.3 µM. It also gave a TGI [25] of 21.6 µM, a TGI [56] of 42.1 µM and a TGI [57] of 11 µM. The TGI [58] was 4.07 µM, the TGI [59] was 14.8 µM and the TGI [26] was 1.73 µM. For the same molecule, the TGI [27] was 2.78 µM, the TGI [28] was 14.3 µM and the TGI [60] was 31.4 µM. The TGI [61] was 4.49 µM, the TGI [29] was 31.2 µM and the TGI [31] was 15.3 µM. The TGI [32] was 5.91 µM, the TGI [33] was 28.8 µM and the TGI [62] was 9.46 µM. The TGI [63] was 4.83 µM, the TGI [34] was 40.1 µM and the TGI [35] was 24 µM. The TGI [64] was 20.5 µM, the TGI [65] was 38.5 µM and the TGI [66] was 31.8 µM. The TGI [36] was 32.9 µM, the TGI [37] was 28.7 µM and the TGI [67] was 22.6 µM.
